In patent US20250320213A1, “Nitrogen-Containing Heterocyclic Compounds” (Pfizer Inc., priority 2024, published 2025) one finds EC50 data, which are given here for 18 molecules.

pEC50: −log10 of the molar value.

For orientation: pEC50 means the EC50 on a negative log10 scale, so that one unit is a factor of ten.

In the first experiment the target is T1, STAT6 (Homo sapiens, UniProt P42226).
T1 construct: stably transfected HaCaT keratinocyte cell line, which expresses NanoLuc luciferase reporter gene under the transcriptional control of the STAT6 responsive promoter; endogenous in cells; host or cells: HaCaT keratinocyte reporter cell line (stably transfected with a NanoLuc reporter)
T1 sequence (P42226 1-847): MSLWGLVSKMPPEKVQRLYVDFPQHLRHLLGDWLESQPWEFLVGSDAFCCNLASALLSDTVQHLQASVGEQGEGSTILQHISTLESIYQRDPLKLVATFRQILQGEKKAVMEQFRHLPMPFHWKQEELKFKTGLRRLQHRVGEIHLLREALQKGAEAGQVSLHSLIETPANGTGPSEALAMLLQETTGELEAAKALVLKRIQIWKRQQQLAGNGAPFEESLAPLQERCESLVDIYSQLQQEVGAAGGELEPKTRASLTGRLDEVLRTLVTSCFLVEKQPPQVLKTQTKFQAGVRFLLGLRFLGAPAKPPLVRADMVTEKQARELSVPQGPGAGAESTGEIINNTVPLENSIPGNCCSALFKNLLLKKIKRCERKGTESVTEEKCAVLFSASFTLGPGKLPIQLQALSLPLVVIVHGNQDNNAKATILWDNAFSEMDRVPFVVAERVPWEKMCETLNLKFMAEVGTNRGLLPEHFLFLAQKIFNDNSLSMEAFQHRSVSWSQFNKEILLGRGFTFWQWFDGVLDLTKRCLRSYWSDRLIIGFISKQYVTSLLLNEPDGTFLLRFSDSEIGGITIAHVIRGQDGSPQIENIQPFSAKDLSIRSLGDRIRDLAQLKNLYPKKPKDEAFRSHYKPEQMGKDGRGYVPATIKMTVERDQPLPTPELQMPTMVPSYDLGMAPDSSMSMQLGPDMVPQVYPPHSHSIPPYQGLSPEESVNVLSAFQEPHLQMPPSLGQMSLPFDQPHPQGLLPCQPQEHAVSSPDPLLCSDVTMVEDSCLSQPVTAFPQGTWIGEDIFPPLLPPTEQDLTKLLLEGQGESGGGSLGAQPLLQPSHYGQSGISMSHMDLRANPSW
In words: STAT6 Reporter Luciferase Assay (IL-13 stimulated HaCaT keratinocyte NanoLuc reporter cells). Format: cell-based. As to conditions: IL-13 stimulated HaCaT STAT6 NanoLuc reporter cells; read-out: Reporter EC50. The essentials:
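Cells were plated overnight, washed, exposed to compound for two hours, stimulated with IL-13 (0.12 nM final) for four hours at 37 °C, and then lysed with Nano-Glo substrate for 15 min before luminescence reading.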
Take `Cc1nnn2c1CN(C(=O)c1ccc(N3CCc4c(c(C(=O)NCc5ccc(NC(=O)N(C)C)cc5)nn4C(C)C)C3)nc1)CC2` [Example 455, N-(4-(3,3-dimethylureido)benzyl)-1-isopropyl-5-(5-(3-methyl-4,5,6,7-tetrahydro-[1,2,3]triazolo[1,5-a]pyrazine-5-carbonyl)pyridin-2-yl)-4,5,6,7-tetrahydro-1H-pyrazolo[4,3-c]pyridine-3-carboxamide]: the pEC50 was 6.51.
Regarding `CC(C)n1nc(C(=O)NCc2ccc(NC(=O)N(C)C)cc2)c2c1CCN(c1ccc(C(=O)N3C[C@H]4C[C@@H](C3)O4)cn1)C2` [Example 212, 5-(5-((1R,5S)-6-oxa-3-azabicyclo[3.1.1]heptane-3-carbonyl)pyridin-2-yl)-N-(4-(3,3-dimethylureido)benzyl)-1-isopropyl-4,5,6,7-tetrahydro-1H-pyrazolo[4,3-c]pyridine-3-carboxamide], the pEC50 is 6.56.
On the same count and under the same terms, the result for `CC(C)n1nc(C(=O)NCc2ccc(NC(=O)N3CC[C@H](CN(C)C)C3)cc2)c2c1[C@@H](C)CN(c1ccc(C(=O)N(C)C)cc1)C2` [Example 756, (S)-N-(4-((R)-3-((dimethylamino)methyl)pyrrolidine-1-carboxamido)benzyl)-5-(4-(dimethylcarbamoyl)phenyl)-1-isopropyl-7-methyl-4,5,6,7-tetrahydro-1H-pyrazolo[4,3-c]pyridine-3-carboxamide] reads 9.00.
On the same count and under the same terms, the result for `COc1cccc2c1CN(C(=O)c1ccc(N3CCc4c(c(C(=O)NCc5ccc(NC(=O)N(C)C)cc5)nn4C(C)C)C3)nc1)C2` [Example 387, N-(4-(3,3-dimethylureido)benzyl)-1-isopropyl-5-(5-(4-methoxyisoindoline-2-carbonyl)pyridin-2-yl)-4,5,6,7-tetrahydro-1H-pyrazolo[4,3-c]pyridine-3-carboxamide] reads 8.52; that for `COC[C@H]1CCCN1C(=O)c1ccc(N2CCc3c(c(C(=O)NCc4ccc(NC(=O)N(C)C)cc4)nn3C(C)C)C2)nc1` [Example 225, (R)-N-(4-(3,3-dimethylureido)benzyl)-1-isopropyl-5-(5-(2-(methoxymethyl)pyrrolidine-1-carbonyl)pyridin-2-yl)-4,5,6,7-tetrahydro-1H-pyrazolo[4,3-c]pyridine-3-carboxamide], 6.19.
Take `COCCC1(N)CCN(C(=O)Nc2ccc(CNC(=O)c3nn(C(C)C)c4c3CN(c3ccc(C(=O)N(C)C)cc3)C[C@@H]4C)cc2)C1` (single isomer, unassigned) [Example 671, (S)-N-(4-((R*)-3-amino-3-(2-methoxyethyl)pyrrolidine-1-carboxamido)benzyl)-5-(4-(dimethylcarbamoyl)phenyl)-1-isopropyl-7-methyl-4,5,6,7-tetrahydro-1H-pyrazolo[4,3-c]pyridine-3-carboxamide]: the pEC50 is 8.52.
Still for that read-out and setting: with `CC(C)n1nc(C(=O)NCc2ccc(NC(=O)N3CCC4(CCN(C)CC4)CC3)cc2)c2c1[C@@H](C)CN(c1ccc(C(=O)N(C)C)cc1)C2` [Example 749, (S)-N-(4-((5-(4-(dimethylcarbamoyl)phenyl)-1-isopropyl-7-methyl-4,5,6,7-tetrahydro-1H-pyrazolo[4,3-c]pyridine-3-carboxamido)methyl)phenyl)-9-methyl-3,9-diazaspiro[5.5]undecane-3-carboxamide] the figure was 9.40; with `CC(C)n1nc(C(=O)NCc2ccc(NC(=O)N3CC4CC4C3)cc2)c2c1CCN(c1ccc(C(=O)N(C)C)cn1)C2` (stereo not drawn) [Example 186, N-(4-(3-azabicyclo[3.1.0]hexane-3-carboxamido)benzyl)-5-(5-(dimethylcarbamoyl)pyridin-2-yl)-1-isopropyl-4,5,6,7-tetrahydro-1H-pyrazolo[4,3-c]pyridine-3-carboxamide], 8.00; with `CC(C)n1nc(C(=O)NCc2ccc(NC(=O)N(C)C)cc2)c2c1CCN(c1ccc(C(=O)N3CCNC(=O)C3)cn1)C2` [Example 223, N-(4-(3,3-dimethylureido)benzyl)-1-isopropyl-5-(5-(3-oxopiperazine-1-carbonyl)pyridin-2-yl)-4,5,6,7-tetrahydro-1H-pyrazolo[4,3-c]pyridine-3-carboxamide], 6.70.
On to `CC(=O)N[C@H]1CCN(C(=O)c2ccc(N3CCc4c(c(C(=O)NCc5ccc(NC(=O)N(C)C)cc5)nn4C(C)C)C3)nc2)C1` [Example 193, (S)-5-(5-(3-Acetamidopyrrolidine-1-carbonyl)pyridin-2-yl)-N-(4-(3,3-dimethylureido)benzyl)-1-isopropyl-4,5,6,7-tetrahydro-1H-pyrazolo[4,3-c]pyridine-3-carboxamide], for which the negative-log EC50 (pEC50) is 6.43.
For the molecule `[2H]C([2H])([2H])N(C(=O)Nc1ccc(CNC(=O)c2nn(C(C)C)c3c2CN(c2ccc(C(=O)N(C)C)cc2)C[C@@H]3C)cc1)C([2H])([2H])[2H]` [Example 315, (S)-N-(4-(3,3-bis(methyl-d3)ureido)benzyl)-5-(4-(dimethylcarbamoyl)phenyl)-1-isopropyl-7-methyl-4,5,6,7-tetrahydro-1H-pyrazolo[4,3-c]pyridine-3-carboxamide], the pEC50 was 8.70.
On the same count and under the same terms, with `CC(C)n1nc(C(=O)NCc2ccc(NC(=O)N(C)C)cc2)c2c1CCN(c1ccc(C(=O)N3CCCOCC3)cn1)C2` [Example 195, 5-(5-(1,4-oxazepane-4-carbonyl)pyridin-2-yl)-N-(4-(3,3-dimethylureido)benzyl)-1-isopropyl-4,5,6,7-tetrahydro-1H-pyrazolo[4,3-c]pyridine-3-carboxamide] the figure was 6.79; with `Cc1nn(C)c(=O)n1-c1ccc(N2Cc3c(C(=O)NCc4ccc(NC(=O)N5CCN(C)CC5)cc4)nn(C(C)C)c3[C@@H](C)C2)cc1` [Example 652, (S)-5-(4-(1,3-dimethyl-5-oxo-1,5-dihydro-4H-1,2,4-triazol-4-yl)phenyl)-1-isopropyl-7-methyl-N-(4-(4-methylpiperazine-1-carboxamido)benzyl)-4,5,6,7-tetrahydro-1H-pyrazolo[4,3-c]pyridine-3-carboxamide], 8.30.
The same measure, in the same setting: the result for `Cc1cnn2c1CN(C(=O)c1ccc(N3CCc4c(c(C(=O)NCc5ccc(NC(=O)N(C)C)cc5)nn4C(C)C)C3)nc1)CC2` [Example 419, N-(4-(3,3-dimethylureido)benzyl)-1-isopropyl-5-(5-(3-methyl-4,5,6,7-tetrahydropyrazolo[1,5-a]pyrazine-5-carbonyl)pyridin-2-yl)-4,5,6,7-tetrahydro-1H-pyrazolo[4,3-c]pyridine-3-carboxamide] reads 7.36.
For the molecule `CC(C)n1nc(C(=O)NCc2ccc(NC(=O)N3CCC4(CCN(C)C4)CC3)cc2)c2c1[C@@H](C)CN(c1ccc(C(=O)N(C)C)cc1)C2` [Example 753, (S)-N-(4-((5-(4-(dimethylcarbamoyl)phenyl)-1-isopropyl-7-methyl-4,5,6,7-tetrahydro-1H-pyrazolo[4,3-c]pyridine-3-carboxamido)methyl)phenyl)-2-methyl-2,8-diazaspiro[4.5]decane-8-carboxamide], the pEC50 was 9.30.
For the molecule `CC(C)n1nc(C(=O)NCc2ccc(NC(=O)N(C)C)cc2)c2c1CCN(c1ccc(C(=O)N3C[C@H]4COC[C@H]4C3)cn1)C2` [Example 289, N-(4-(3,3-dimethylureido)benzyl)-5-(5-((3aR,6aS)-hexahydro-1H-furo[3,4-c]pyrrole-5-carbonyl)pyridin-2-yl)-1-isopropyl-4,5,6,7-tetrahydro-1H-pyrazolo[4,3-c]pyridine-3-carboxamide], the pEC50 is 6.51.
In the case of `Cc1cnc2n1CCN(C(=O)c1ccc(N3CCc4c(c(C(=O)NCc5ccc(NC(=O)N(C)C)cc5)nn4C(C)C)C3)nc1)C2` [Example 404, N-(4-(3,3-dimethylureido)benzyl)-1-isopropyl-5-(5-(3-methyl-5,6,7,8-tetrahydroimidazo[1,2-a]pyrazine-7-carbonyl)pyridin-2-yl)-4,5,6,7-tetrahydro-1H-pyrazolo[4,3-c]pyridine-3-carboxamide], the pEC50 is 7.40.

Still in this experiment, the particulars now being: STAT6 NanoLuc luciferase reporter, IL-13 stimulated HaCaT keratinocyte cells; read-out: Reporter EC50.
Take `CC(C)n1nc(C(=O)NCc2ccc(NC(=O)N3CCC(CC#N)CC3)cc2)c2c1CCN(c1ccc(C(=O)N(C)C)cn1)C2` [Example 149, N-(4-(4-(cyanomethyl)piperidine-1-carboxamido)benzyl)-5-(5-(dimethylcarbamoyl)pyridin-2-yl)-1-isopropyl-4,5,6,7-tetrahydro-1H-pyrazolo[4,3-c]pyridine-3-carboxamide]: the pEC50 is 8.30.
